From patent publication US20020013478A1, “Calanolide analogues and methods of their use” (Sarawak Medichem Pharmaceuticals,Inc., priority 1994, published 2002)
Values after ≈ are worked out from the molar mass of the structure shown. Like-named read-outs stand apart in the source and are kept apart here.

Legend:
[1] = system: 2.2.15 cells; assay: Toxicity in 2.2.15 cells, neutral red dye uptake; assay type: cell-based, human; details: Table II, read-out: HBV IC50
Method: Cells of 2.2.15 were grown to confluence in 96-well flat-bottomed tissue culture plates and treated with compounds (in 0.2 mL culture medium/well) as described above. Four concentrations of each compound were assayed, each in triplicate cultures, in 3- to 10-fold steps. Untreated control cultures were maintained on each 96-well plate. On each 96-well plate, wells containing no cells were used to correct for light scattering.

[2] = system: HBV; assay: HBV replication in cultures of 2.2.15 cells, extracellular HBV virion DNA (primary assay); details: for EC50: read-out: HBV EC50
[3] = system: human foreskin fibroblast cells; assay: Toxicity run with the HCMV assay, human foreskin fibroblast cells; assay type: cell-based; details: Table II; for IC50: Homo sapiens, Fibroblast
Method: (§1) [table] […] The media from the wells is then aspirated and 2 mL of each drug concentration is then added to each well. The cells are then incubated in a CO2 incubator at 37° C. for 72 h. At the end of this time, the media-drug solution is removed and the cells washed. […] The cell-media mixture is then pipetted up and down vigorously to break up the cell suspension, and 0.2 mL of the mixture is added to 9.8 mL of Isoton III and counted using a Coulter Counter. Each sample is counted three times with three replicate wells per sample. The procedure for plating cells and adding drug is the same as for the MTT Assay. After drug addition, the plates are incubated for seven days in a CO2 incubator at 37° C. […] This is incubated in the CO2 incubator for one hour. The dye is aspirated and the cells are washed using a Nunc Plate Washer. […] The plates are rotated for 15 minutes and the optical densities are read at 550 nm on a plate reader.

[4] = system: human foreskin fibroblast cells; assay: Toxicity run with the VZV assay, human foreskin fibroblast cells; assay type: cell-based; details: Table II; for IC50: Homo sapiens, Fibroblast
Method: as §1

[5] = system: VZV; assay: VZV plaque reduction assay in human foreskin fibroblast cells; assay type: cell-based, varicella zoster virus; details: Table II; for EC50: Human alphaherpesvirus 3, Fibroblast
Method: Two days prior to use, HFF cells are plated into six-well plates and incubated at 37° C. with 5% CO2 and 90% humidity. On the date of assay, the drug is made up at twice the desired concentration in 2x MEM and then serially diluted 1:5 in 2x MEM using six concentrations of drug. The initial starting concentration is usually 200 gg/mL down to 0.06 μg/mL. The virus to be used is diluted in MEM containing 10% FBS to a desired concentration which will give 20-30 plaques per well. The media is then aspirated from the wells and 0.2 mL of virus is added to each well in duplicate with 0.2 mL of media being added to drug toxicity wells. The plates are then incubated for one hour with shaking every fifteen minutes. After the incubation period, an equal amount of 1% agarose was added to an equal volume of each drug dilution. This will give final drug concentrations beginning with 100 μg/mL and ending with 0.03 μg/mL and a final agarose overlay concentration of 0.5%. The drug agarose mixture is applied to each well in 2 mL volume and the plates then incubated for three days, after which the cells were stained with a 1.5% solution of neutral red. At the end of 4-6hr incubation period, the stain is aspirated, and plaques counted using a stereomicroscope at lOx magnification.
The procedure is essentially the same as for the HSV plaque assay described above with two exceptions:
1. After addition of the drug, the plates are incubated for ten days.
2. On days three and six, an additional 1 mL overlay with equal amounts of 2x MEM and 1% agarose are added.

[6] = system: HCMV; assay: HCMV semi-automated CPE-inhibition assay in human foreskin fibroblast cells; assay type: cell-based, human cytomegalovirus; details: Table II; for EC50: Human betaherpesvirus 5, Fibroblast
[7] = system: EBV; assay: EBV assay: superinfection of Raji or Daudi cells with P3HR-1, immunofluorescence for EA and VCA; assay type: cell-based, Epstein-Barr virus; details: Table II; for EC50: human gammaherpesvirus 4
Description: There are two prototypes of infectious EBV. One is exemplified by the virus derived from supernatant fluids of the P3HR-1cell line. This cell line produces nontransforming virus that causes the production of early antigen (EA) after primary infection or superinfection of B cell lines. The other prototype is exemplified by the B-95-8 virus. This virus immortalized cord blood lymphocytes and induced tumors in marmosets.
The virus used in our assays is P3HR-1.
Ramos is an exceptional B cell line derived from Burkitt's lymphoma tumor but containing no detectable EBV genome copies and is EBNA negative. Ramos/AW was obtained by in vitro infection of Ramos with the P3HR-1 virus and contains one resident EBV genome copy/cell. Raji is a Burkitt's lymphoma cell line containing 60 EBV genomes/cell, and will be the primary cell used for screening antiviral activity against EBV EA expression. Daudi is a low level producer that contains 152 EBV genome copies/cell. It spontaneously expresses EBV EA in 0.25%-0.5% of the cells. It will be used in follow-up studies to confirm activity. These cell lines respond to superinfection by EBV by expressing EA(D), EA(R), and VCA. All cell lines are maintained in RPMI-1640 medium supplemented by 10% FCS, L-glutamine and 100 μg/mL gentamicin. The cultures are fed twice weekly and the cell concentration adjusted to 3×10^5/mL. The cells are kept at 37° C. in a humidified atmosphere with 5% CO2.
Cells are infected with the P3HR-1 strain of EBV and the drugs to be tested are added after adsorption (45 minutes at 37° C.) and washing of the cell cultures. The cultures are incubated for two days in complete medium to allow viral gene expression. Following the 48 hr incubation period, the number of cells of each sample are counted and smears made. Monoclonal antibodies to the different EA components and VCA are then added to the cells incubated and washed. This is followed by a fluorescein conjugated rabbit anti-mouse Ig antibody; and the number of fluorescence positive cells in the smears are counted. The total number of cells in the cultures positive for EA or VCA are then calculated and compared.

[8] = system: Raji or Daudi cells; assay: Toxicity run with the EBV assay; assay type: cell-based, human; details: Table II; for IC50: Homo sapiens
Description: IC50 (50% inhibitory concentration) is the concentration required to inhibit cell proliferation by 50%

[9] = system: HCMV isolates Towne, AD169, E. Mann, Coffman, C9208; assay: Anti-CMV plaque reduction assay against various laboratory and clinical isolates (Example 40); assay type: cell-based, human cytomegalovirus
Method: On the date of assay, the drug is made up at twice the desired concentration in 2x MEM and then serially diluted 1:5 in 2x MEM using six concentrations of drug. The initial starting concentration is usually 200 gg/mL down to 0.06 μg/mL. […] The media is then aspirated from the wells and 0.2 mL of virus is added to each well in duplicate with 0.2 mL of media being added to drug toxicity wells. The plates are then incubated for one hour with shaking every fifteen minutes. […] This will give final drug concentrations beginning with 100 μg/mL and ending with 0.03 μg/mL and a final agarose overlay concentration of 0.5%. The drug agarose mixture is applied to each well in 2 mL volume and the plates then incubated for three days, after which the cells were stained with a 1.5% solution of neutral red. At the end of 4-6hr incubation period, the stain is aspirated, and plaques counted using a stereomicroscope at lOx magnification. The procedure again is nearly the same as for HSV with a few minor changes. […] The assay is incubated for 14 days with the additional 1 mL overlays being applied on days four and eight. The procedure for the liquid overlay plaque assay is similar to that using the agarose overlay. The procedure for adding the virus is the same as for the regular plaque assay. The drugs are made up in a concentration to be used in MEM with 2% FBS. The drugs are not made up at 2x concentration as in the previous assays but are made up at the desired concentration. For HSV-1 and HSV-2 assays, an antibody preparation obtained from Baxter Health Care Corporation is diluted 1:500 and added to the media that the drug is diluted in. For CMV and VZV, no antibody in the overlay is utilized. For the CMV assay, additional medium without new drug is added on day five and allowed to incubate for a total of 10 days. For VZV, additional medium is added on day five and incubated for a total of 10 days. At the end of the incubation period for all of the assays, 2 mL of 1:10 dilution of stock neutral is added to each well incubated for six hours. The liquid is then aspirated off and plaques enumerated using a stereomicroscope. Five calanolide analogues, prepared as described above, were further evaluated for their anti-HCMV activity in plaque reduction assay against various laboratory and clinical isolates (Towne, AD 169, E. Mann, Coffinan, and […]).

[10] = system: CEM-SS cells; assay: CEM-SS MTT assay, cytotoxicity (Table I); assay type: cell-based, human
[11] = system: HIV-1; details: CEM-SS MTT assay

SMILES	IC50 ([1]; Homo sapiens) [µM]	EC50 ([2]; Hepatitis B virus) [µM]	IC50 [3] [µg/mL]	EC50 [6] [µg/mL]	EC50 [7] [µg/mL]	IC50 [8] [µg/mL]	IC50 [1] [µM]	EC50 ([2]; Table II) [µM]	HCMV IC50 [3] [µg/mL]	VZV IC50 [4] [µg/mL]	VZV EC50 [5] [µg/mL]	HCMV EC50 [6] [µg/mL]	EBV EC50 [7] [µg/mL]	EBV IC50 [8] [µg/mL]	further results
CCCc1cc(=O)oc2c1c1c(c3oc(C)c(C)c(=O)c32)C=CC(C)(C)O1 [Compound 5, 6,6,10,11-tetramethyl-4-propyl-2H,6H,12H-benzo[1,2-b:3,4-b′:5,6-b″]tripyran-2,12-dione]	2080	> 10	> 100	> 100	> 50	> 50	–	–	–	–	–	–	–	–	IC50 [4]: 52.2 µg/mL (≈ 142 µM); EC50 [5]: > 20 µg/mL
CCCc1cc(=O)oc2c3c(c4c(c12)OC(C)(C)C=C4)O[C@@H](C)[C@H](C)[C@@H]3O [(−)-calanolide B, (-)-Calanolide B]	–	–	–	–	–	–	1000	> 10	78.4	20.0	>4.0	2.6	>50	>50	EC50 ([9]; isolate AD169): 3.16 µM; EC50 ([9]; isolate C9208): 2.01 µM; EC50 ([9]; isolate Coffman): 3.18 µM; EC50 ([9]; isolate E. Mann): 3.16 µM; EC50 ([9]; isolate Towne): 3.2 µM
CCCc1cc(=O)oc2c3c(c4c(c12)OC(C)(C)C=C4)O[C@H](C)[C@H](C)C3=O [(+)-7a]	382	2.5	11.6 (≈ 31.5 µM)	> 4	> 4	11.9 (≈ 32.3 µM)	–	–	–	–	–	–	–	–	EC90 ([2]; Hepatitis B virus, read-out: HBV EC90): 11 µM
CCCc1cc(=O)oc2c3c(c4c(c12)OC(C)(C)CC4)OC(C)C(C)C3=O (single isomer, unassigned; (+)) [(+)-18a]	–	–	–	–	–	–	88	> 10	>100	>100	>100	>100	>50	>50	–
CCCc1cc(=O)oc2c3c(c4c(c12)OC(C)(C)C=C4)OC(C)(C)C(C)C3=O (racemic) [(±)-15b, (±)-10,11-Dihydro-6,6,10,10,11-pentamethyl-4-propyl-2H, 6H, 12H-benzo[1,2-b:3,4-b′:5,6-b″]tripyran-2,12-dione]	307	> 10	52.3 (≈ 137 µM)	> 20	> 50	> 50	–	–	–	–	–	–	–	–	IC50 ([10]; Homo sapiens): 21 µM; IC50 [4]: 66.7 µg/mL (≈ 174 µM); EC50 [5]: > 20 µg/mL
CCCc1cc(=O)oc2c3c(c4c(c12)OC(C)(C)C=C4)OC(CC)C(C)C3=O (racemic) [(±)-15c, (±)-10,11-trans-10,11-Dihydro-10-ethyl-4-propyl-6,6,11-trimethyl-2H,6H,12H-benzo[1,2-b:3,4-b ″]tripyran-2,12-dione]	–	–	–	–	–	–	152	> 10	77.6	68.0	>20	>20	>50	>50	Maximum Protection (%) [11]: 47%; IC50 [10]: 6.8 µM
CCCc1cc(=O)oc2c3c(c4c(c12)OC(C)(C)CC4)OC(C)C(C)C3=O (racemic) [(±)-18a, (±)-10,11-trans4-Propyl-7,8,10,11-tetrahydro-6,6,10,11-tetramethyl-2H,6H,12H-benzo [1,2-b:3,4-b′5,6-b″]tripyran-2,12-dione]	–	–	–	–	–	–	88	> 10	19.5	33.3	15.4	>4.0	24.5	>50	EC50 [11]: 2470 nM; Maximum Protection (%) [11]: 60%; IC50 [10]: 9.19 µM
CCCc1cc(=O)oc2c3c(c4c(c12)OC(C)(C)C=C4)OC(C)C(C)C3=O (single isomer, unassigned; (-)) [(−)-7]	–	–	–	–	–	–	327	> 10	23.7	–	–	>20	>20	23.7	–
CCCc1cc(=O)oc2c3c(c4c(c12)OC(C)(C)C=C4)OC(C(C)C)C(C)C3=O (racemic) [(+)-15e]	–	–	–	–	–	–	86	> 10	75.3	>100	>100	>20	>50	>50	–
